The results in this text go back to ChEMBL document CHEMBL3875228, “Rational Design of a Boron-Modified Triphenylethylene (GLL398) as an Oral Selective Estrogen Receptor Downregulator” (ACS Med Chem Lett, 2017).

Data set [1] can be described thus: AUC in Sprague-Dawley rat assessed as GW7604 at 10 mg/kg, po administered via gavage measured at 1 to 24 hrs post administration by HPLC-MS/MS analysis. The data set is classed as ADME, organism-based. The note with it: in vivo.
The nature of data set [2]: Cmax in Sprague-Dawley rat at 10 mg/kg, po administered via gavage measured at 1 to 24 hrs post administration by HPLC-MS/MS analysis. The class given is ADME, organism-based. The arrangement: dose 10 mg/kg, route oral. The note with it: in vivo.
The nature of data set [3]: Cmax in Sprague-Dawley rat assessed as GW7604 at 10 mg/kg, po administered via gavage measured at 1 to 24 hrs post administration by HPLC-MS/MS analysis. The class given is ADME, organism-based. The arrangement: dose 10 mg/kg, route oral. The note with it: in vivo.
Data set [4] in a line: Half life in Sprague-Dawley rat assessed as GW7604 at 10 mg/kg, po administered via gavage measured at 1 to 24 hrs post administration by HPLC-MS/MS analysis. The class given is ADME, organism-based. To be noted: in vivo.
The nature of data set [5]: Tmax in Sprague-Dawley rat at 10 mg/kg, po administered via gavage measured at 1 to 24 hrs post administration by HPLC-MS/MS analysis. The class given is ADME, organism-based. The note with it: in vivo.
A short description of data set [6]: cells. To be noted: Homo sapiens, MCF7, 120 h.
Description: Cytotoxicity against tamoxifen-resistant human MCF7 cells assessed as reduction in cell viability after 5 days by Coulter counting method
The nature of data set [7]: AUC in Sprague-Dawley rat at 10 mg/kg, po administered via gavage measured at 1 to 24 hrs post administration by HPLC-MS/MS analysis. The class given is ADME, organism-based. To be noted: in vivo.
Data set [8] in a line: cells. The note with it: Homo sapiens, MCF7, 120 h. The source holds these as a separate data set.
Description: Cytotoxicity against human MCF7 cells assessed as reduction in cell viability after 5 days by Coulter counting method
Data set [9] is described as follows: Half life in Sprague-Dawley rat at 10 mg/kg, po administered via gavage measured at 1 to 24 hrs post administration by HPLC-MS/MS analysis. To be noted: in vivo. The data set is classed as ADME, organism-based.
Data set [10] has as its target T1, Estrogen receptor (Homo sapiens, UniProt P03372).
T1 sequence (P03372 whole entry): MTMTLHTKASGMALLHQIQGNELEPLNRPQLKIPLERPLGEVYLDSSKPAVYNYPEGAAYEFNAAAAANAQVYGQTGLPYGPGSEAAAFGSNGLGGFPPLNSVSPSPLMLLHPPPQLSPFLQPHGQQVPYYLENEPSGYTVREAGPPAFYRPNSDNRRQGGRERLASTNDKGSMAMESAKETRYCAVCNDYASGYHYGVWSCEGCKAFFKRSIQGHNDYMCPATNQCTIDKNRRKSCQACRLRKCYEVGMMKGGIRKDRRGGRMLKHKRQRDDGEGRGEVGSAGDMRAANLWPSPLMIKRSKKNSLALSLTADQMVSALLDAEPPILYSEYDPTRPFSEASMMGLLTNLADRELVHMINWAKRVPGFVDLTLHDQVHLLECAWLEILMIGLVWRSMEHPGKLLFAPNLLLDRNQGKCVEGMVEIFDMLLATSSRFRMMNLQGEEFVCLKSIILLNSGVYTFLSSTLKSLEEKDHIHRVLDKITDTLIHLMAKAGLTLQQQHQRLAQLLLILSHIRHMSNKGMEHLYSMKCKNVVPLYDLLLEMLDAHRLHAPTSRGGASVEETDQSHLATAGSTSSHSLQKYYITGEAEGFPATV
In words: Downregulation of ERalpha in human MCF7 cells after 4 hrs by Western blot analysis. The data set is classed as cell-based. For orientation: Immunoblotting shows a protein as a band on a membrane.

Data set [11] concerns the target T1, Estrogen receptor. Nature of the data set: biochemical.
Description: Displacement of fluormone-labeled ES2 from recombinant full length human ERalpha ligand binding domain expressed in insect cells after 2 hrs by TR-FRET assay

As usually defined, the AUC is concentration integrated over time. The Cmax is the peak of the concentration-time curve. Usually Tmax stands for the time at which the peak concentration occurs. Usually IC50 stands for the concentration that gives 50% inhibition. A low value points to greater potency. As usually defined, the half-life is the time in which the quantity being followed falls by half.

As to `CC/C(=C(\c1ccccc1)c1ccc(/C=C/C(=O)O)cc1)c1ccc(O)cc1`, the area under the curve (AUC) in data set [1] came out at 8670 ng·h/mL; in data set [7], 3350 ng·h/mL. Further, the results for the Cmax in data set [2] and in data set [3] were 270 ng/mL and 560 ng/mL, respectively. The t1/2 in [4] is 4.5 h. The Tmax in data set [5] was 3 h. Besides, the 50% inhibitory concentration (IC50) in the data set “cells [6]” is 1000 nM; in the data set “cells [8]”, 1900 nM. In [9], this compound had a half-life of 7 h.
`CCC(=C(c1ccc(/C=C/C(=O)O)cc1)c1ccc(B(O)O)cc1)c1ccccc1` had a Cmax in data set [2] of 3510 ng/mL. In addition, in data set [5], the Tmax was 1 h. Besides, the IC50 was found to be 1200 nM in “cells [6]”, 210 nM against Estrogen receptor [10], 1800 nM in the data set “cells [8]” and 1.14 nM against Estrogen receptor [11]. This compound displayed an AUC in data set [7] of 36900 ng·h/mL. The compound also gave a half-life in data set [9] of 3.9 h.
In the case of `CC/C(=C(\c1ccc(O)cc1)c1ccc(OCCN(C)C)cc1)c1ccccc1` [AFIMOXIFENE], the IC50 in the data set “cells [6]” was determined as 20000 nM; in the data set “cells [8]” it was 3.4 nM.
